Read-outs that look alike come from different tables or passages of the source.

Here are results for 26 molecules from patent US9393232B2 (BeiGene, Ltd., priority 2013, dated 2016).

Assay [1] concerns MV4-11. The assay can be described thus: MV4-11 (3 Days) EC50. The class given is cell-based.
Assay [2] concerns the target Recombinant human BRD4(1-477) (Homo sapiens (Human), UniProt O60885). The assay can be described thus: BRD4 TR-FRET biochemical IC50 assay. The class given is binding. As to conditions: TR-FRET, tetra-acetylated histone peptide; read-out: BRD4 IC50.

One may read the EC50 as the concentration at which the effect is half-maximal. A higher EC50 goes with lower potency in that assay. What is called IC50 is the concentration needed to halve the response being measured. In assay [1] (Homo sapiens, 72 h), `Cc1noc(C)c1-c1ccc2c(c1)C(O)(C1CC1)C(=O)N2` (stereo not shown) [Compound 1.19, 3-cyclopropyl-5-(3,5-dimethylisoxazol-4-yl)-3-hydroxyindolin-2-one] gave an EC50 of 1960 nM. For the same molecule, the IC50 in assay [2] amounted to 850 nM.

In assay [1] (Homo sapiens, MV4-11, 72 h), `CC#CC1(O)C(=O)Nc2ccc(-c3c(C)noc3C)cc21` (stereo not shown) [Compound 1.22, 5-(3,5-dimethylisoxazol-4-yl)-3-hydroxy-3-(prop-1-ynyl)indolin-2-one] displayed a concentration giving a half-maximal response (EC50) of 478 nM. Moreover, the IC50 in assay [2] is 220 nM.

On to `Cc1noc(C)c1-c1ccc2c(c1)C(Cl)(c1ccccc1)C(=O)N2` (stereo not shown) [Compound 1.31, 3-Chloro-5-(3,5-dimethylisoxazol-4-yl)-3-phenylindolin-2-one], for which the EC50 in assay [1] (Homo sapiens, MV4-11, 72 h) was found to be 152 nM. Besides, in assay [2], the IC50 turned out to be 58 nM.

`Cc1noc(C)c1-c1ccc2c(c1)C(OCCO)(c1ccccc1)C(=O)N2` (stereo not shown) [Compound 1.32, 5-(3,5-Dimethylisoxazol-4-yl)-3-(2-hydroxyethoxy)-3-phenylindolin-2-one] yielded an EC50 in assay [1] (Homo sapiens, MV4-11, 72 h) of 82 nM. Moreover, the IC50 in assay [2] amounted to 79 nM.

Molecule `Cc1noc(C)c1-c1ccc2c(c1)C(NCCO)(c1ccccc1)C(=O)N2` (stereo not shown) [Compound 2.1, 5-(3,5-dimethylisoxazol-4-yl)-3-(2-hydroxyethylamino)-3-phenylindolin-2-one] returned an EC50 in assay [1] (Homo sapiens, MV4-11, 72 h) of 78 nM. In addition, the concentration for half-maximal inhibition (IC50) in assay [2] is 70 nM.

Consider `Cc1noc(C)c1-c1ccc2c(c1)C(c1ccccc1)(N1CCCCC1)C(=O)N2` (stereo not shown) [Compound 2.3, 5-(3,5-dimethylisoxazol-4-yl)-3-phenyl-3-(piperidin-1-yl)indolin-2-one], for which it took 542 nM to reach a half-maximal effect in assay [1] (Homo sapiens, MV4-11, 72 h) (EC50). For the same molecule, the IC50 in assay [2] was 84 nM.

In assay [1] (Homo sapiens, MV4-11, 72 h), `Cc1noc(C)c1-c1ccc2c(c1)C(c1ccccc1)(N1CCC(O)CC1)C(=O)N2` (stereo not shown) [Compound 2.4, 5-(3,5-dimethylisoxazol-4-yl)-3-(4-hydroxypiperidin-1-yl)-3-phenylindolin-2-one] yielded a 50% effective concentration (EC50) of 76 nM. Besides, in assay [2], the IC50 came to 36 nM.

Regarding `Cc1noc(C)c1-c1ccc2c(c1)C(c1ccccc1)(N1CCN(C)CC1)C(=O)N2` (stereo not shown) [Compound 2.5, 5-(3,5-dimethylisoxazol-4-yl)-3-(4-methylpiperazin-1-yl)-3-phenylindolin-2-one], the EC50 in assay [1] (Homo sapiens, MV4-11, 72 h) came out at 420 nM. Also, the IC50 in assay [2] was 110 nM.

Consider `Cc1noc(C)c1-c1ccc2c(c1)C(c1ccccc1)(N1CCOCC1)C(=O)N2` (stereo not shown) [Compound 2.6, 5-(3,5-dimethylisoxazol-4-yl)-3-morpholino-3-phenylindolin-2-one], for which the EC50 in assay [1] (Homo sapiens, MV4-11, 72 h) stood at 179 nM. Besides, the IC50 in assay [2] was 63 nM.

`Cc1noc(C)c1-c1ccc2c(c1)C(NCCO)(C1CCCCC1)C(=O)N2` (stereo not shown) [Compound 2.18, 3-cyclohexyl-5-(3,5-dimethylisoxazol-4-yl)-3-(2-hydroxyethylamino)indolin-2-one]: in assay [1] (Homo sapiens, MV4-11, 72 h), the EC50 stood at 204 nM. Moreover, in assay [2], the IC50 is 85 nM.

The molecule `Cc1noc(C)c1-c1ccc2c(c1)C(NC[C@H](C)O)(C1CCCCC1)C(=O)N2` (stereo partly drawn) [Compound 2.21, 3-cyclohexyl-5-(3,5-dimethylisoxazol-4-yl)-3-((S)-2-hydroxypropylamino)indolin-2-one] gave an EC50 in assay [1] of 270 nM. Further, the IC50 in assay [2] is 88 nM.

In turn, `Cc1noc(C)c1-c1ccc2c(c1)C(N[C@@H](C)CO)(C1CCCCC1)C(=O)N2` (stereo partly drawn) [Compound 2.23, 3-cyclohexyl-5-(3,5-dimethylisoxazol-4-yl)-3-((S)-1-hydroxypropan-2-ylamino)indolin-2-one] gave an EC50 in assay [1] (Homo sapiens, MV4-11, 72 h) of 371 nM. In addition, the IC50 in assay [2] is 160 nM.

With `Cc1noc(C)c1-c1ccc2c(c1)C(N[C@H](C)CO)(C1CCCCC1)C(=O)N2` (stereo partly drawn) [Compound 2.24, 3-cyclohexyl-5-(3,5-dimethylisoxazol-4-yl)-3-((R)-1-hydroxypropan-2-ylamino)indolin-2-one], a half-maximal response in assay [1] (Homo sapiens, MV4-11, 72 h) (EC50) required 349 nM. Also, the IC50 in assay [2] was 75 nM.

With `Cc1noc(C)c1-c1ccc2c(c1)C(NC(C)C)(C1CCCCC1)C(=O)N2` (stereo not shown) [Compound 2.27, 3-cyclohexyl-5-(3,5-dimethylisoxazol-4-yl)-3-(isopropylamino)indolin-2-one], the half-maximal effective concentration (EC50) in assay [1] (Homo sapiens, MV4-11, 72 h) was 833 nM. Also, the IC50 in assay [2] was determined as 85 nM.

Turning to `Cc1noc(C)c1-c1ccc2c(c1)C(NCCN(C)C)(C1CCCCC1)C(=O)N2` (stereo not shown) [Compound 2.28, 3-cyclohexyl-3-(2-(dimethylamino)ethylamino)-5-(3,5-dimethylisoxazol-4-yl)indolin-2-one], it took 539 nM to reach a half-maximal effect in assay [1] (Homo sapiens, MV4-11, 72 h) (EC50). In addition, in assay [2], the IC50 was 140 nM.

Take `Cc1noc(C)c1-c1ccc2c(c1)C(C1CCCCC1)(N1CCOCC1)C(=O)N2` (stereo not shown) [Compound 2.29]: in assay [1] (Homo sapiens, MV4-11, 72 h), the EC50 stood at 314 nM. Besides, the IC50 in assay [2] is 94 nM.

In assay [1] (Homo sapiens, MV4-11, 72 h), `Cc1noc(C)c1-c1ccc2c(c1)C(C1CCCC1)(N1CCOCC1)C(=O)N2` (stereo not shown) [Compound 2.34, 3-cyclopentyl-5-(3,5-dimethylisoxazol-4-yl)-3-morpholinoindolin-2-one] yielded an EC50 of 438 nM. In addition, in assay [2], the IC50 was determined as 120 nM.

In assay [1] (Homo sapiens, MV4-11, 72 h), `Cc1noc(C)c1-c1ccc2c(c1)C(NCCO)(C1CCCC1)C(=O)N2` (stereo not shown) [Compound 2.35, 3-cyclopentyl-5-(3,5-dimethylisoxazol-4-yl)-3-(2-hydroxyethylamino)indolin-2-one] gave a 50% effective concentration (EC50) of 324 nM. In addition, the IC50 in assay [2] came to 130 nM.

`Cc1noc(C)c1-c1ccc2c(c1)C(c1ccccc1)(N1CCNCC1)C(=O)N2` (stereo not shown) [Compound 2.38, 5-(3,5-dimethylisoxazol-4-yl)-3-phenyl-3-(piperazin-1-yl)indolin-2-one] returned an EC50 in assay [1] (Homo sapiens, MV4-11, 72 h) of 504 nM. Moreover, the IC50 in assay [2] came out at 120 nM.

In assay [1] (Homo sapiens, MV4-11, 72 h), `Cc1noc(C)c1-c1ccc2c(c1)C(C1CCCCC1)(N1CCNCC1)C(=O)N2` (stereo not shown) [Compound 2.39] yielded an EC50 of 365 nM. Further, the 50% inhibitory concentration (IC50) in assay [2] stood at 76 nM.

`Cc1noc(C)c1-c1ccc2c(c1)C(C1CCCC1)(N1CCNCC1)C(=O)N2` (stereo not shown) [Compound 2.40, 3-Cyclopentyl-5-(3,5-dimethylisoxazol-4-yl)-3-(piperazin-1-yl)indolin-2-one]: in assay [1] (Homo sapiens, MV4-11, 72 h), the EC50 was found to be 555 nM. Further, in assay [2], the IC50 amounted to 150 nM.

As to `Cc1noc(C)c1-c1ccc2c(c1)C(c1ccccc1)(N1CC(O)C1)C(=O)N2` (stereo not shown) [Compound 2.58, 5-(3,5-Dimethylisoxazol-4-yl)-3-(3-hydroxyazetidin-1-yl)-3-phenylindolin-2-one], the EC50 in assay [1] (Homo sapiens, MV4-11, 72 h) worked out at 258 nM. In assay [2], the IC50 came to 78 nM.

`Cc1noc(C)c1-c1ccc2c(c1)C(c1ccccc1)C(=O)N2` (stereo not shown) [Compound 3.1, 5-(3,5-Dimethylisoxazol-4-yl)-3-phenylindolin-2-one] yielded an EC50 in assay [1] (Homo sapiens, MV4-11, 72 h) of 382 nM. The IC50 in assay [2] came out at 110 nM.

`Cc1noc(C)c1-c1ccc2c(c1)C(CCCO)(c1ccccc1)C(=O)N2` (stereo not shown) [Compound 3.2, 5-(3,5-dimethylisoxazol-4-yl)-3-(3-hydroxypropyl)-3-phenylindolin-2-one] showed an EC50 in assay [1] (Homo sapiens, MV4-11, 72 h) of 125 nM. In assay [2], the IC50 was 52 nM.

Molecule `CCOC(=O)CC1(c2ccccc2)C(=O)Nc2ccc(-c3c(C)noc3C)cc21` (stereo not shown) [Compound 3.3, Ethyl 2-(5-(3,5-dimethylisoxazol-4-yl)-2-oxo-3-phenylindolin-3-yl)acetate] gave an EC50 in assay [1] (Homo sapiens, MV4-11, 72 h) of 787 nM. The IC50 in assay [2] was found to be 440 nM.

`Cc1noc(C)c1-c1ccc2c(c1)C(CCO)(c1ccccc1)C(=O)N2` (stereo not shown) [Compound 3.5, 5-(3,5-Dimethylisoxazol-4-yl)-3-(2-hydroxyethyl)-3-phenylindolin-2-one] returned a half-maximal effective concentration (EC50) in assay [1] (Homo sapiens, MV4-11, 72 h) of 140 nM. Further, the IC50 in assay [2] turned out to be 120 nM.
